The source made the active and inactive calls. The rule behind the calls is not given here.
Test system: CCRIS mutagenicity, Ames/micronucleus/aberration tests
Assay: CCRIS mutagenicity studies
[1] = Test System: AMES SALMONELLA TYPHIMURIUM, Strain/Indicator: TA97, Metabolic Activation: NONE, Method: STANDARD PLATE
[2] = Test System: AMES SALMONELLA TYPHIMURIUM, Strain/Indicator: TA98, Metabolic Activation: NONE, Method: STANDARD PLATE
[3] = Test System: AMES SALMONELLA TYPHIMURIUM, Strain/Indicator: TA100, Metabolic Activation: NONE, Method: STANDARD PLATE
[4] = Test System: AMES SALMONELLA TYPHIMURIUM, Strain/Indicator: TA98, Metabolic Activation: RAT, LIVER, S-9, AROCLOR 1254, Method: STANDARD PLATE
[5] = Test System: AMES SALMONELLA TYPHIMURIUM, Strain/Indicator: TA100, Metabolic Activation: RAT, LIVER, S-9, AROCLOR 1254, Method: STANDARD PLATE
[6] = Test System: AMES SALMONELLA TYPHIMURIUM, Strain/Indicator: TA1537, Metabolic Activation: NONE, Method: STANDARD PLATE
[7] = Test System: AMES SALMONELLA TYPHIMURIUM, Strain/Indicator: TA1535, Metabolic Activation: NONE, Method: STANDARD PLATE
[8] = Test System: AMES SALMONELLA TYPHIMURIUM, Strain/Indicator: TA1535, Metabolic Activation: RAT, LIVER, S-9, AROCLOR 1254, Method: STANDARD PLATE
[9] = Test System: AMES SALMONELLA TYPHIMURIUM, Strain/Indicator: TA1537, Metabolic Activation: RAT, LIVER, S-9, AROCLOR 1254, Method: STANDARD PLATE

Structure (SMILES): CC(Cl)(Cl)Cl
- mutagenic call (End Point: IN VITRO CHROMOSOMAL ABERRATIONS, Test System: CHINESE HAMSTER OVARY CELLS, Metabolic Activation: NONE): active; positive
- mutagenic call (End Point: IN VITRO CHROMOSOMAL ABERRATIONS, Test System: CHINESE HAMSTER OVARY CELLS, Metabolic Activation: RAT, LIVER, S-9, AROCLOR 1254): inactive; negative
- mutagenic call (End Point: In vitro chromosomal aberrations, Test System: Chinese hamster lung (CHL/IU) cells, Metabolic Activation: Rat, Liver, S9, Phenobarbital and 5,6-benzoflavone): inactive; negative (structural changes and ploidy showed weak response without dose respon
- mutagenic call [1]: active; positive
- mutagenic call (Test System: AMES SALMONELLA TYPHIMURIUM, Strain/Indicator: TA97, Metabolic Activation: RAT, LIVER S-9, AROCLOR 1254, Method: STANDARD PLATE): active; positive
- mutagenic call [2]: active; positive
- mutagenic call (Test System: AMES SALMONELLA TYPHIMURIUM, Strain/Indicator: TA98, Metabolic Activation: RAT, LIVER S-9, AROCLOR 1254, Method: STANDARD PLATE): active; positive
- mutagenic call [3]: active; positive
- mutagenic call (Test System: AMES SALMONELLA TYPHIMURIUM, Strain/Indicator: TA100, Metabolic Activation: NONE, Method: VAPOR CHAMBER): active; positive
- mutagenic call (Test System: AMES SALMONELLA TYPHIMURIUM, Strain/Indicator: TA100, Metabolic Activation: RAT, LIVER S-9, AROCLOR 1254, Method: STANDARD PLATE): inactive; negative
- mutagenic call (Test System: AMES SALMONELLA TYPHIMURIUM, Strain/Indicator: TA100, Metabolic Activation: RAT, LIVER, S-9, AROCLOR 1254, Method: DESICCATOR): active; positive
- mutagenic call (Test System: AMES SALMONELLA TYPHIMURIUM, Strain/Indicator: TA100, Metabolic Activation: RAT, LIVER, S-9, AROCLOR 1254, Method: VAPOR CHAMBER): active; positive
- mutagenic call (Test System: AMES SALMONELLA TYPHIMURIUM, Strain/Indicator: TA104, Metabolic Activation: NONE, Method: STANDARD PLATE): inactive; negative
- mutagenic call (Test System: AMES SALMONELLA TYPHIMURIUM, Strain/Indicator: TA104, Metabolic Activation: RAT, LIVER, S-9, AROCLOR 1254, Method: STANDARD PLATE): active; positive
- mutagenic call (Test System: AMES SALMONELLA TYPHIMURIUM, Strain/Indicator: TA1535, Metabolic Activation: NONE, Method: VAPOR CHAMBER): active; positive
- mutagenic call (Test System: AMES SALMONELLA TYPHIMURIUM, Strain/Indicator: TA1535, Metabolic Activation: RAT, LIVER, S-9, AROCLOR 1254, Method: VAPOR CHAMBER): active; positive

Structure (SMILES): COC(=O)Nc1nc2ccc(Sc3ccccc3)cc2[nH]1
- mutagenic call [1]: inactive; negative
- mutagenic call (Test System: AMES SALMONELLA TYPHIMURIUM, Strain/Indicator: TA97, Metabolic Activation: RAT, LIVER, S-9, AROCLOR 1254, Method: STANDARD PLATE): inactive; negative
- mutagenic call [2]: inactive; negative
- mutagenic call [4]: inactive; negative
- mutagenic call [3]: inactive; negative
- mutagenic call [5]: inactive; negative
- mutagenic call (Test System: AMES SALMONELLA TYPHIMURIUM, Strain/Indicator: TA102, Metabolic Activation: NONE, Method: STANDARD PLATE): inactive; negative
- mutagenic call (Test System: AMES SALMONELLA TYPHIMURIUM, Strain/Indicator: TA102, Metabolic Activation: RAT, LIVER, S-9, AROCLOR 1254, Method: STANDARD PLATE): inactive; negative

Structure (SMILES): O=C(NCCCl)Nc1ncc([N+](=O)[O-])s1
- mutagenic call [2]: active; positive
- mutagenic call [3]: active; positive

Structure (SMILES): O=C1C=CC(=O)C(Cl)=C1
- mutagenic call (Test System: AMES SALMONELLA TYPHIMURIUM, Strain/Indicator: TA98, Metabolic Activation: NONE, Method: PREINCUBATION): inactive; negative
- mutagenic call (Test System: AMES SALMONELLA TYPHIMURIUM, Strain/Indicator: TA98, Metabolic Activation: RAT, LIVER, S-9, PHENOBARBITAL AND 5,6-BENZOFLAVONE, Method: PREINCUBATION): inactive; negative
- mutagenic call (Test System: AMES SALMONELLA TYPHIMURIUM, Strain/Indicator: TA100, Metabolic Activation: NONE, Method: PREINCUBATION): inactive; negative
- mutagenic call (Test System: AMES SALMONELLA TYPHIMURIUM, Strain/Indicator: TA100, Metabolic Activation: RAT, LIVER, S-9, PHENOBARBITAL AND 5,6-BENZOFLAVONE, Method: PREINCUBATION): inactive; negative
- mutagenic call (Test System: AMES SALMONELLA TYPHIMURIUM, Strain/Indicator: TA102, Metabolic Activation: NONE, Method: PREINCUBATION): inactive; negative
- mutagenic call (Test System: AMES SALMONELLA TYPHIMURIUM, Strain/Indicator: TA102, Metabolic Activation: RAT, LIVER, S-9, PHENOBARBITAL AND 5,6-BENZOFLAVONE, Method: PREINCUBATION): inactive; negative
- mutagenic call (Test System: AMES SALMONELLA TYPHIMURIUM, Strain/Indicator: TA104, Metabolic Activation: NONE, Method: PREINCUBATION): inactive; negative
- mutagenic call (Test System: AMES SALMONELLA TYPHIMURIUM, Strain/Indicator: TA104, Metabolic Activation: RAT, LIVER, S-9, PHENOBARBITAL AND 5,6-BENZOFLAVONE, Method: PREINCUBATION): inactive; negative
- mutagenic call (Test System: AMES SALMONELLA TYPHIMURIUM, Strain/Indicator: TA2637, Metabolic Activation: NONE, Method: PREINCUBATION): inactive; negative
- mutagenic call (Test System: AMES SALMONELLA TYPHIMURIUM, Strain/Indicator: TA2637, Metabolic Activation: RAT, LIVER, S-9, PHENOBARBITAL AND 5,6-BENZOFLAVONE, Method: PREINCUBATION): inactive; negative

Structure (SMILES): c1ccc([C@H]2N[C@@H]2c2ccccc2)cc1
- mutagenic call [2]: inactive; negative
- mutagenic call [3]: active; positive
- mutagenic call [6]: inactive; negative

Structure (SMILES): Nc1ccn([C@@H]2O[C@H](CO)[C@@H](O)C2(F)F)c(=O)n1
- mutagenic call (End Point: CHROMOSOMAL ABERRATIONS, Test System: BONE MARROW, Species: MOUSE, Strain/Sex: SWISS/MALE, FEMALE, Route: INTRAPERITONEAL): active; positive (structural changes)
- mutagenic call (End Point: IN VITRO CHROMOSOMAL ABERRATIONS, Test System: HUMAN PERIPHERAL LYMPHOCYTES, Metabolic Activation: NONE): active; positive; (structural changes: breaks, fragments)
- mutagenic call (End Point: IN VITRO CHROMOSOMAL ABERRATIONS, Test System: HUMAN PERIPHERAL LYMPHOCYTES, Strain/Sex: MALE, FEMALE, Metabolic Activation: NONE): active; positive (structural changes)
- mutagenic call (End Point: MICRONUCLEUS, Test System: BONE MARROW, Species: MOUSE, Strain/Sex: SWISS/MALE, FEMALE, Route: INTRAPERITONEAL): active; positive

Structure (SMILES): CS(=O)(=O)n1ncc(Cl)c(Cl)c1=O
- mutagenic call [2]: inactive; negative
- mutagenic call [4]: inactive; negative
- mutagenic call [3]: active; positive
- mutagenic call [5]: active; positive
- mutagenic call [7]: inactive; negative
- mutagenic call [8]: inactive; negative
- mutagenic call [6]: inactive; negative
- mutagenic call [9]: inactive; negative

Structure (SMILES): N#CC1=C(C#N)SCCS1
- mutagenic call [2]: inactive; negative
- mutagenic call [4]: inactive; negative
- mutagenic call [3]: inactive; negative
- mutagenic call [5]: inactive; negative
- mutagenic call [7]: inactive; negative
- mutagenic call [8]: inactive; negative
- mutagenic call [6]: inactive; negative
- mutagenic call [9]: inactive; negative
- mutagenic call (Test System: AMES SALMONELLA TYPHIMURIUM, Strain/Indicator: TA1538, Metabolic Activation: NONE, Method: STANDARD PLATE): inactive; negative
- mutagenic call (Test System: AMES SALMONELLA TYPHIMURIUM, Strain/Indicator: TA1538, Metabolic Activation: RAT, LIVER, S-9, AROCLOR 1254, Method: STANDARD PLATE): inactive; negative

Reference: PubChem BioAssay AID1259407 (Chemical Carcinogenesis Research Information System (CCRIS), 2018)
